From patent publication US12559504B2, “Benzotriazole derivative” (UBE CORPORATION, priority 2019, dated 2026)

What was measured:
[1] = Metabolism test using human liver microsome fractions; format: in vitro ADME; conditions: human liver microsomes, test compound 10 μmol/L, NADPH and UDP-glucuronic acid, 37° C.
Outline: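 Human or monkey liver microsomes (1 mg protein) with NADPH-regenerating system plus UDP-glucuronic acid/UGT mix, 37 °C; compound at 10 μmol/L final. Samples at 0–30 min quenched in acetonitrile, UV-HPLC; elimination rate (pmol/min/mg-P) from linear slope of residual amount over time.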

[2] = test system: NQO1; test: NQO1 expression induction test in mouse kidney (single administration); format: in vivo; conditions: Mus musculus, po, 6 h, Dose 20 mg/kg, BALB/c mouse kidney, 6 hours after administration, ratio to control group
Outline: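 Female BALB/c mice received a single oral dose of compound in 0.5% methylcellulose, with untreated mice as controls. Six hours later, left-kidney NQO1 mRNA was measured by SYBR real-time RT-PCR normalised to GAPDH. Induction was expressed as the ratio of mean treated to mean control expression.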

[3] = target: T1, GST fusion human Keap1 (amino acid residue: 325-624) protein (Homo sapiens, UniProt Q14145); test: Keap1-Nrf2 binding inhibition test (fluorescence polarization); conditions: compound concentration of 100 nM; read-out: inhibition rate
T1 construct: GST fusion human Keap1 (amino acid residue: 325-624) protein; purchased Protein tech Ag0779
Outline: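 Fluorescence polarization with FITC-labelled Nrf2 peptide (FITC-Ahx-LDEETGEFL-NH2) and GST-human Keap1 (325-624) in 20 mM Tris pH 7.5, 150 mM NaCl, 0.05% Tween 20, 5 mM DTT, BSA; 30 min at room temperature, ex 482/em 530 nm. Percent inhibition at 100 nM compound, Keap1-free wells = 100%.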

[4] = test system: NQO1; test: NQO1 enzyme induction test (in vitro) in Hepa1c1c7 cells; format: cell-based; conditions: Mus musculus, Hepa-1c1c7, 48 h, concentration to elevate the NQO1 activity by 1.5 times, about 48 hours, read-out: EC150
Outline: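 Mouse Hepa1c1c7 cells treated about 48 h with compound (0.1% DMSO final), then lysed. NQO1 activity read as MTT reduction at 540 nm with menadione substrate, 5 min at room temperature, and corrected for cell number by CellTiter-Glo. EC150 is the concentration raising NQO1 activity 1.5-fold.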

T1 sequence (Q14145 325-624): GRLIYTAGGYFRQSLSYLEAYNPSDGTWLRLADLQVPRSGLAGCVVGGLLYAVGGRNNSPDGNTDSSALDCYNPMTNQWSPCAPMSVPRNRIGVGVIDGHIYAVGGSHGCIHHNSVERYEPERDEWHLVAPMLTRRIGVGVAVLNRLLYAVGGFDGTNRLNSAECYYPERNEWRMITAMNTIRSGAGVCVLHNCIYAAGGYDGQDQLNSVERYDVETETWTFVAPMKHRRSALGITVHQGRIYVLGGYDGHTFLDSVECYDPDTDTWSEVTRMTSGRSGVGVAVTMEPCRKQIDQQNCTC

CC[C@@H]1CN(Cc2cc(C(c3ccc4c(c3)nnn4C)C(C)(C)C(=O)O)ccc2C)Cc2cc3ncccc3cc2O1 (stereo partly drawn) [Example 82-(b), 3-(3-(((R)-2-ethyl-2,3-dihydro-[1,4]oxazepino[7,6-g]quinolin-4 (5H)-yl)methyl)-4-methylphenyl)-2,2-dimethyl-3-(1-methyl-1H-benzo[d][1,2,3]triazol-5-yl) propanoic Acid]
Human metabolic rate [1]: B (100≤metabolic rate<150 pmol/min/mg protein)
fold induction at 20 mg/kg [2]: > 6
inhibition at 0.1 µM [3]: ≥ 50%
EC (1.5-fold NQO1 activity) [4]: 0.005 to 0.05 µM

CC[C@@H]1CN(Cc2cc(C(c3ccc4c(nnn4C)c3C)C3(C(=O)O)CCC3)ccc2C)Cc2cc3ncccc3cc2O1 (stereo partly drawn) [Example 84-(b), 1-((1,4-dimethyl-1H-benzo[d][1,2,3]triazol-5-yl) (3-(((R)-2-ethyl-2,3-dihydro-[1,4]oxazepino[7,6-g]quinolin-4 (5H)-yl)methyl)-4-methylphenyl)methyl)cyclobutane-1-carboxylic Acid]
Human metabolic rate [1]: C (150≤metabolic rate<200 pmol/min/mg protein)
fold induction at 20 mg/kg [2]: > 6
inhibition at 0.1 µM [3]: ≥ 50%
EC (1.5-fold NQO1 activity) [4]: 0.0005 to 0.005 µM
